Data published in patent publication US10100088B2, “Glycopeptide derivatives for the preservation and protection of biological materials and microorganisms” (TFCHEM, priority 2014, dated 2018).

Experiments:
[1] = tested on: human neonatal skin fibroblasts (CCD-27SK, ATCC CRL-1475); assay: Starvation (serum deprivation) stress, neutral red uptake viability; type: cell-based
Description: Induced stresses were performed as follow: Starvation
(§1) The neutral red uptake assay was used for the determination of cell viability. This assay is based on the ability of viable cells to incorporate and bind the supravital dye neutral red in its lysosomes. So, only the viable cells are dyed. At different times after the stress assay (T0), the plates were incubated with neutral red solution for 3.5 hours. The cells are subsequently washed, the dye is extracted in each well and the absorbance is read using a spectrophotometer.
(§2) For sampling, 1 mL of DMEM (without phenol red indicator) with neutral red (OD=0.110) was added to the cells for 3.5 hours (37° C., 10% CO2). After incubation, the medium was removed, two washes of PBS were realized and 1 mL of extraction solution (absolute ethanol 49%, ultrapure water 49%, glacial acetic acid 2%) was added. Plates were placed 15 minutes on rotary shaker in the dark before reading OD at 540 nm.
The OD540 nm average value of positive control was considered as 100% of viability.
(§3) The percentage of viability for each assay was calculated as follow: % viability assay=(OD540 nm of tested solution−blank)*100/(OD540 nm of positive control−blank).

[2] = tested on: human neonatal skin fibroblasts; assay: UV stress (11 J/cm^2), neutral red uptake viability; type: cell-based
Description: as §1, §2, §3

C[C@H](NC(=O)[C@H](C)NC(=O)[C@@H](N)CCCCNCC(F)(F)C1(O)O[C@H](CO)[C@H](O)[C@H](O)[C@H]1O)C(=O)O.Cl.Cl (stereo partly shown) [Compound 17]
Percentage of viability ([1]; D 1 after serum deprivation, 5 mg/mL (Table 2)): 75%
Percentage of viability ([1]; D 1 after serum deprivation, 10 mg/mL (Table 2)): 71%
Percentage of viability ([1]; D 4 after serum deprivation, 5 mg/mL (Table 2)): 54%
Percentage of viability ([1]; D 4 after serum deprivation, 10 mg/mL (Table 2)): 61%
Percentage of viability ([1]; D4 after serum deprivation, 10 mg/mL (Table 4)): 116%
Percentage of viability ([1]; D 7 after serum deprivation, 5 mg/mL (Table 2)): 45%
Percentage of viability ([1]; D 7 after serum deprivation, 10 mg/mL (Table 2)): 55%
preservative/protective effect on skin fibroblasts (in words) ([1]; starvation medium): significant preservative/protective effect
preservative/protective effect against UV stress (in words) [2]: preservative/protective effect against UV stress
Percentage of viability following UV stress (11 J/cm^2) ([2]; 1 h after irradiation, 5 mg/mL): 55%
Percentage of viability following UV stress (11 J/cm^2) ([2]; 1 h after irradiation, 10 mg/mL): 53%
Percentage of viability following UV stress (11 J/cm^2) ([2]; 1 h after irradiation, 15 mg/mL): 50%
Percentage of viability following UV stress (11 J/cm^2) ([2]; 3 h after irradiation, 5 mg/mL): 63%
Percentage of viability following UV stress (11 J/cm^2) ([2]; 3 h after irradiation, 10 mg/mL): 46%
Percentage of viability following UV stress (11 J/cm^2) ([2]; 3 h after irradiation, 15 mg/mL): 50%
Percentage of viability following UV stress (11 J/cm^2) ([2]; 24 h after irradiation, 5 mg/mL): 82%
Percentage of viability following UV stress (11 J/cm^2) ([2]; 24 h after irradiation, 10 mg/mL): 94%
Percentage of viability following UV stress (11 J/cm^2) ([2]; 24 h after irradiation, 15 mg/mL): 84%
growth or regenerative effect on stressed cells (in words) ([2]; viability increased in time after UV): growth or regenerative effect
